Experimental data as given in patent US10994015B2, “EGFR proteolysis targeting chimeric molecules and associated methods of use” (Arvinas Operations, Inc., priority 2016, dated 2021).

Tests used:
HER3 = HER3 (Homo sapiens (Human), UniProt P21860); test: TR-FRET assay for ERBB kinases; type: biochemical; settings: geometric mean if measured more than once
EGFR Exon20NPG = EGFR Exon20NPG (Homo sapiens (Human), UniProt P00533, INS770NPG); test: TR-FRET assay for ERBB kinases; type: biochemical; settings: geometric mean if measured more than once
Procedure, shortened: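 Compounds pre-incubated 10 min with kinase in HEPES pH 7.5 buffer (MgCl2, DTT, Pluronic), then reaction started with substrate mix (3 mM ATP, 30 µM fluorescein-poly-GluTyr, stock levels) for 10 min at room temperature. EDTA-quenched, detected by Tb-pY20 antibody TR-FRET (520/490 nm emission).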

[1] = target: EGFR L858R/T790M/C797S triple mutant (H520*) (Homo sapiens (Human), UniProt P00533, C797S/L858R/T790M); test: EGFR protein degradation assay (Western blot); type: cell-based; settings: 72 hours, 300 nM to 10 nM
Procedure, shortened: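 EGFR loss in the triple-mutant line measured by immunoblot: clarified lysates normalised by BCA, run on 4-12% Bis-Tris gels, blotted to PVDF, probed with HRP anti-rabbit secondary. Before lysis, cells were dosed from 1, 0.3, 0.1, 0.03 and 0.01 mM DMSO stocks (not final concentrations) after overnight culture at 37° C.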

[2] = target: EGFR L858R/T790M double mutant (H1975) (Homo sapiens (Human), UniProt P00533, L858R/T790M); test: EGFR protein degradation assay (Western blot); type: cell-based; settings: 72 hours, 300 nM to 10 nM
Procedure, shortened: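 Cells carrying the relevant EGFR form were plated at 300,000 cells per well in 6-well plates and left to attach overnight. After washing in ice-cold PBS, cells were lysed in 400 μl lysis buffer with protease inhibitors, scraped, and clarified at 10 000 rpm for 10 minutes. EGFR levels were then assessed by Western blot with tubulin as loading control.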

EGFR WT = EGFR WT (Homo sapiens (Human), UniProt P00533); test: TR-FRET assay for ERBB kinases; type: biochemical; settings: geometric mean if measured more than once
Procedure, shortened: (§1)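 Compounds, serially diluted 3-fold in DMSO, were pre-incubated 10 min with kinase in HEPES pH 7.5 buffer with MgCl2 and DTT. Reactions were started with a substrate mix holding 3 mM ATP and 30 uM fluorescein-poly-GluTyr, run 10 min at room temperature, then quenched with Tb-pY20 antibody plus EDTA.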

EGFR L858R/T790M = EGFR L858R/T790M (Homo sapiens (Human), UniProt P00533, L858R/T790M); test: TR-FRET assay for ERBB kinases; type: biochemical; settings: geometric mean if measured more than once
Procedure, shortened: as §1

EGFR L858R/T790M/C797S = EGFR L858R/T790M/C797S (Homo sapiens (Human), UniProt P00533, C797S/L858R/T790M); test: TR-FRET assay for ERBB kinases; type: biochemical; settings: geometric mean if measured more than once
Procedure, shortened: as §1

Chain of HER3 (P21860 20-1342, species assumed): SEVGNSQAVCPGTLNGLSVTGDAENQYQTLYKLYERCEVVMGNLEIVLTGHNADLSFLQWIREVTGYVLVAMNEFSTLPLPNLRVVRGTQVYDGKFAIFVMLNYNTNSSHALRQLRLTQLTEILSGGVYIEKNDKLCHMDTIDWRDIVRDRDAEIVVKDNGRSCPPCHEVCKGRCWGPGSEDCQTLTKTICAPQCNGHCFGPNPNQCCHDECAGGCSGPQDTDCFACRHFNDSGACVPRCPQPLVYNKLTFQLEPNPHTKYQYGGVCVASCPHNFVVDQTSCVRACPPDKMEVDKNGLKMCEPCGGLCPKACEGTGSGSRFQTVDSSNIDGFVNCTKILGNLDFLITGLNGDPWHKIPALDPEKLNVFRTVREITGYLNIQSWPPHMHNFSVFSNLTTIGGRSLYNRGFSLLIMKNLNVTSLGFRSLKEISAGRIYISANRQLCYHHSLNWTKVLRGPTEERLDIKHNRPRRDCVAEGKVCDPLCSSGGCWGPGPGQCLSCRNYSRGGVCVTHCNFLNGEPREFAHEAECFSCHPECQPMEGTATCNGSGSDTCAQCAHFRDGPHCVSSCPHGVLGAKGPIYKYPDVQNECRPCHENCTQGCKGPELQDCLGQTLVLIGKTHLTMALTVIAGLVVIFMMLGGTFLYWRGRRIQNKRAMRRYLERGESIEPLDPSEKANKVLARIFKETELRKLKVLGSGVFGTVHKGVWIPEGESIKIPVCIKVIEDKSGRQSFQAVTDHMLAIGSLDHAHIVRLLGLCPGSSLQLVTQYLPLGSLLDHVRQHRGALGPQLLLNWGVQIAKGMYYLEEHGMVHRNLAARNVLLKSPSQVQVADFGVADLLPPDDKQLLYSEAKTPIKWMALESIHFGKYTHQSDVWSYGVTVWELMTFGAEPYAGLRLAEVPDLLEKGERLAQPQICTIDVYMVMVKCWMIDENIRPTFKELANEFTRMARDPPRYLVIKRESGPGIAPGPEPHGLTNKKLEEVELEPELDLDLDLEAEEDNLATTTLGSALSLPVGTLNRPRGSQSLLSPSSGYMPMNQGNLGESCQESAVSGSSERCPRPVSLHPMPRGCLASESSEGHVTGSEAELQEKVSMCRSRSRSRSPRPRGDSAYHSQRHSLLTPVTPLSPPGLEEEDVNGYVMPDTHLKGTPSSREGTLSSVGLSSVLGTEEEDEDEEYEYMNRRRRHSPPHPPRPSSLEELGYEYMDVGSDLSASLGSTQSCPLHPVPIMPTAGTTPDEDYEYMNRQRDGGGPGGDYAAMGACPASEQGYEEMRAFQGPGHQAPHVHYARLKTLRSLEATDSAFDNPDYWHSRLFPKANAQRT
Chain of EGFR L858R/T790M/C797S (P00533 25-1210 T790M/C797S/L858R): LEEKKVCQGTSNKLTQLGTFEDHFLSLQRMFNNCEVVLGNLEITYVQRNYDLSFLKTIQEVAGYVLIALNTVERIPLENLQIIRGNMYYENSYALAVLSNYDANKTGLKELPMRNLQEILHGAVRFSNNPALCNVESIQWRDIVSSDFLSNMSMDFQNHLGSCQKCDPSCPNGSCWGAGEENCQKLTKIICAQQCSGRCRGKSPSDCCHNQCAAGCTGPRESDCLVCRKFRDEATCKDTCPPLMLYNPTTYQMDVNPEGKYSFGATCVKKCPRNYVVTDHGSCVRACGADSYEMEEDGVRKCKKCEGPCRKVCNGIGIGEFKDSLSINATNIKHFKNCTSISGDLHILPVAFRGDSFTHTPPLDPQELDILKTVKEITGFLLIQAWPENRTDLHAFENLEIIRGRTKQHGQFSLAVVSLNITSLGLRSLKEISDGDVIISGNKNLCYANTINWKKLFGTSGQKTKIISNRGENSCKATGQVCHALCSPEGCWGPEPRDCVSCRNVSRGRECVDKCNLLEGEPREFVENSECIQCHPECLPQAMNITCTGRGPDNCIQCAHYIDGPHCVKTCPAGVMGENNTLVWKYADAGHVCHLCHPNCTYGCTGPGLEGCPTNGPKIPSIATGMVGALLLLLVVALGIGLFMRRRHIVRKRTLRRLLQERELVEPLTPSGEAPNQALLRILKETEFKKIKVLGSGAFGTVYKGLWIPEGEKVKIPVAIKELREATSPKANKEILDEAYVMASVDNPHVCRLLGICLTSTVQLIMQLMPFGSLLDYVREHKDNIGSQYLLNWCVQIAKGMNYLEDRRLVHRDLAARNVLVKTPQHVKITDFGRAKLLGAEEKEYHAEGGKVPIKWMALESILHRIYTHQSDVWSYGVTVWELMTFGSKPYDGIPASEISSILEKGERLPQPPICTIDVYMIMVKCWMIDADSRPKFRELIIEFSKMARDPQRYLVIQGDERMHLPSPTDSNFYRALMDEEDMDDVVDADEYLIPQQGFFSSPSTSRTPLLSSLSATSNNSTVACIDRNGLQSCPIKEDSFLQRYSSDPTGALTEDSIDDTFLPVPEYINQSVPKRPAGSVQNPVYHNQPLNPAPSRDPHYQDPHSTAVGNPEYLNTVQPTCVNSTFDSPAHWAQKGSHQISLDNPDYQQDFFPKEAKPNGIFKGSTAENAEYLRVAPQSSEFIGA
Chain of EGFR WT (P00533 25-1210): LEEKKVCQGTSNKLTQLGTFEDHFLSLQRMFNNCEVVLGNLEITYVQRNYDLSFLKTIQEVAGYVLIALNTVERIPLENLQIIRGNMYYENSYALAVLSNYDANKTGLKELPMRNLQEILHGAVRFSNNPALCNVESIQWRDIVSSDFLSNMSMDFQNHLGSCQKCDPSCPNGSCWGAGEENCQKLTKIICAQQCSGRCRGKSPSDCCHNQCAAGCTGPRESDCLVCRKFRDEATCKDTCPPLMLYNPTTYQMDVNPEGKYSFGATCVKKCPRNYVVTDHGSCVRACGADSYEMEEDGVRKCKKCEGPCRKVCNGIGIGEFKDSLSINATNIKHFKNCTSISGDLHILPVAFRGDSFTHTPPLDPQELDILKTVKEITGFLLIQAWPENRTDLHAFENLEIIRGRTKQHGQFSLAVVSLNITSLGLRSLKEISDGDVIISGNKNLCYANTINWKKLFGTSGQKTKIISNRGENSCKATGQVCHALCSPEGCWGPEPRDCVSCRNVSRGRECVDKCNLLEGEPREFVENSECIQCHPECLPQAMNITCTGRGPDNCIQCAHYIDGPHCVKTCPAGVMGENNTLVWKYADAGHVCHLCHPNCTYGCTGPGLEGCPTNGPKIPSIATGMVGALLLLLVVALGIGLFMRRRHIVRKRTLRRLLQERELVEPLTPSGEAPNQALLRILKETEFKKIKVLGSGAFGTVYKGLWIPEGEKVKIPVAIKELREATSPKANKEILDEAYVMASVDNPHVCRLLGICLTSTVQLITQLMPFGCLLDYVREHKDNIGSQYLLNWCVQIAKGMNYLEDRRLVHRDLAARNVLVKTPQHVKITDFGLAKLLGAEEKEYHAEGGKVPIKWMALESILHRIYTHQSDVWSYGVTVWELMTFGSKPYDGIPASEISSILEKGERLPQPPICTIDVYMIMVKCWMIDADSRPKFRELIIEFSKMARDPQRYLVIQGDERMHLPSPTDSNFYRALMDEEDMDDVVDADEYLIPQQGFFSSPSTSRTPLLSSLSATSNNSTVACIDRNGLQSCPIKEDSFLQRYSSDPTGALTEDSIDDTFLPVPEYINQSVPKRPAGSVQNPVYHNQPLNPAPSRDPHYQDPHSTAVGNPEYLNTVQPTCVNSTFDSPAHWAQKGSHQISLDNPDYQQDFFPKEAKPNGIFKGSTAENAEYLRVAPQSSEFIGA
Chain of EGFR Exon20NPG (P00533 other isoform, or with tags, fused parts or gaps del 1-694/ins NPG behind 770 limits assumed): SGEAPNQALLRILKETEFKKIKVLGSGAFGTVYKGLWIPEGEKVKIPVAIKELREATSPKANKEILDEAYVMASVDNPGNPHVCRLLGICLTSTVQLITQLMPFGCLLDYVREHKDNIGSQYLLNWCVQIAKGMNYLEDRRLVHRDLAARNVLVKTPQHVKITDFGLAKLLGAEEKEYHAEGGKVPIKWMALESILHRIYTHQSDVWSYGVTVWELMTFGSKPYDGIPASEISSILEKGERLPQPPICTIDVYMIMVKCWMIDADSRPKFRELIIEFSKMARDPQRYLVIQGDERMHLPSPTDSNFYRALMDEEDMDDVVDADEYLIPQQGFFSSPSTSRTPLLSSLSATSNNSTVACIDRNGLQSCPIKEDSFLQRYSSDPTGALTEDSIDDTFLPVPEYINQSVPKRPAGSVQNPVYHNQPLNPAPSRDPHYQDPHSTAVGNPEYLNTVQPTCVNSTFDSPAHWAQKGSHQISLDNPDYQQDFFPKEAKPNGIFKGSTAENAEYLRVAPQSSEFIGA

Row | SMILES | IC50 (HER3) [µM] | IC50 (EGFR Exon20NPG) [µM] | EGFR protein remaining, EGFR L858R/T790M/C797S triple mutant [1] | EGFR protein remaining, EGFR L858R/T790M double mutant [2] | IC50 (EGFR WT) [µM] | IC50 (EGFR L858R/T790M) [µM] | IC50 (EGFR L858R/T790M/C797S) [µM]
1 | Cc1ncsc1-c1ccc([C@H](C)NC(=O)[C@H]2C[C@H](O)CN2C(=O)[C@@H](NC(=O)CN2CCN(CCCOCC#Cc3cccc4c3C(=O)N(C(C(=O)Nc3nccs3)c3cc(F)ccc3O)C4)CC2)C(C)(C)C)cc1 (some centres unmarked) [compound 90] | 29 | 3.4 | C (>80% EGFR protein remaining after 72 hours of incubation with the test compound at a concentration of 300 nM) | C (>80% EGFR protein remaining after 72 hours of incubation with the test compound at a concentration of 300 nM) | 1.3 | 0.74 | 0.69
2 | COC1CCN(c2nccc(Nc3cc4c(cn3)nc(COCCN3CCN(CCOc5ccc6c(c5)C(=O)N(C5CCC(=O)NC5=O)C6=O)CC3)n4C(C)C)n2)CC1 (centres unmarked) [Example 76, 2-(2,6-dioxopiperidin-3-yl)-5-(2-(4-(2-((1-isopropyl-6-((2-(4-methoxypiperidin-1-yl)pyrimidin-4-yl)amino)-1H-imidazo[4,5-c]pyridin-2-yl)methoxy)ethyl)piperazin-1-yl)ethoxy)isoindoline-1,3-dione] | 8.6 | 14 | C (>80% EGFR protein remaining after 72 hours of incubation with the test compound at a concentration of 300 nM) | C (>80% EGFR protein remaining after 72 hours of incubation with the test compound at a concentration of 300 nM) | 17 | 0.36 | 0.036
3 | COC1CCN(c2nccc(Nc3cc4c(cn3)nc(COCCCN3CCN(CCCOc5ccc6c(c5)C(=O)N(C5CCC(=O)NC5=O)C6=O)CC3)n4C(C)C)n2)CC1 (centres unmarked) [compound 89] | > 30 | > 30 | – | C (>80% EGFR protein remaining after 72 hours of incubation with the test compound at a concentration of 300 nM) | > 30 | 1.6 | 0.65
4 | COC1CCN(c2nccc(Nc3cc4c(cn3)nc(COCCOCCOCCOCC(=O)N[C@H](C(=O)N3C[C@@H](O)C[C@@H]3C(=O)N[C@@H](C)c3ccc(-c5scnc5C)cc3)C(C)(C)C)n4C(C)C)n2)CC1 [compound 79] | > 30 | > 30 | – | C (>80% EGFR protein remaining after 72 hours of incubation with the test compound at a concentration of 300 nM) | > 30 | 29 | 7.6
5 | COC1CCN(c2nccc(Nc3cc4c(cn3)nc(COCCOCCOCCOCCON3CCN(c5ccc6c(c5)C(=O)N(C5CCC(=O)NC5=O)C6=O)CC3)n4C(C)C)n2)CC1 (centres unmarked) [compound 75] | > 30 | > 30 | – | C (>80% EGFR protein remaining after 72 hours of incubation with the test compound at a concentration of 300 nM) | > 30 | > 30 | > 30
6 | COC1CCN(c2nccc(Nc3cc4c(cn3)nc(COCCOCCON3CCN(c5ccc6c(c5)C(=O)N(C5CCC(=O)NC5=O)C6=O)CC3)n4C(C)C)n2)CC1 (centres unmarked) [compound 74] | > 30 | > 30 | – | C (>80% EGFR protein remaining after 72 hours of incubation with the test compound at a concentration of 300 nM) | > 30 | > 30 | 10
